From US8541601B2, “Piperazine dithioctate and pharmaceutical composition comprising the same” (Celltrion Chemical Research Institute, priority 2009, dated 2013)

Columns and labels:
[1] = format: physicochemical; conditions: for remaining rate of the active ingredient, Initial: 0 h; for remaining rate of the active ingredient, 3 days: 72 h; for remaining rate of the active ingredient, 7 days: 168 h; for remaining rate of the active ingredient, 14 days: 336 h; for remaining rate of the active ingredient, 28 days: 672 h
rats = conditions: rat, in vivo; cited from earlier work

Structure (SMILES) | remaining rate of the active ingredient, Initial [1] | remaining rate of the active ingredient, 3 days [1] [%] | remaining rate of the active ingredient, 7 days [1] [%] | remaining rate of the active ingredient, 14 days [1] [%] | remaining rate of the active ingredient, 28 days [1] [%] | LD50 (the lethal dose causing death in 50% of rats on oral administration) (rats) [mg/kg]
O=C(O)CCCCC1CCSS1 (racemic) [Piperazine dithioctate, Piperazine Dithioctate] | 100.0 | 100 | 100 | 100 | 100 | –
O=C(O)CCCCC1CCSS1 (stereo not shown) [Thioctic acid] | 100.0 | 99.8 | 99.6 | 98.9 | 97.8 | –
NC(CO)(CO)CO.O=C(O)CCCCC1CCSS1 (stereo not shown) [Tromethamine thioctate, Tromethamine Thioctate] | 100.0 | 100 | 100 | 100 | 100 | –
C1CNCCN1 [piperazine] | – | – | – | – | – | 1900
